Data from PMC10205807, “Cross-species comparison in nonclinical pharmacokinetics of lenvatinib by a simple HPLC with ultraviolet detection” (Scientific Reports, 2023).

Columns and labels:
[1] = Stability of lenvatinib in monkey plasma and processed samples; format: physicochemical, monkeys; conditions: monkey plasma; for Freeze/thaw stability, mean percentage bias from the theoretical values: 3 cycles; for Frozen stability, mean percentage bias from the theoretical values: below − 15 °C, 6 weeks
Procedure: Calibration samples and QC samples for the reproducibility assessment were prepared by spiking 0.05 mL of the working standard solutions to blank plasma (0.05 mL), and QC samples for the stability assessment were prepared by fortifying 0.05 mL of the solution to 1.5 mL of bank plasma. Lenvatinib concentrations in plasma were 0.005, 0.01, 0.03, 0.1, 0.3, 1, 3, 10, 30, and 100 μg/mL for the calibration samples, and were 0.005, 0.01, 1, and 100 μg/mL for the QC samples for reproducibility assessment. Lenvatinib concentrations of QC samples for the stability assessment were 0.01, 1, and 80 μg/mL.
The developed method for the determination of lenvatinib concentrations in plasma was validated and the following validation parameters including linearity, selectivity, intra- and inter-batch reproducibility, extraction recovery, and stability were evaluated in accordance with the bioanalytical guidelines by United States Food and Drug Administration (US-FDA)[7]. The peak height ratios of lenvatinib to the IS of calibration samples were plotted against the corresponding nominal concentrations of lenvatinib. The calibration curve was prepared by the least square method with 1/(concentration)^2 as the weighting factor. In the linearity assessment, accuracy of each calibration sample was determined to ensure that relative error (RE) at each concentration was within ± 15% (within ± 20% at the LLOQ). In the selectivity assessment, peak heights at the retention times of lenvatinib and the IS should be within 20% and 5% of those of the LLOQ for lenvatinib and the IS, respectively in blank plasma from six individuals. Intra-batch accuracy and precision were evaluated using QC samples at the four concentrations, LLOQ, low QC (LQC), mid QC (MQC), and ULOQ. Six replicates per concentration were assayed to calculate RE and relative standard deviation (RSD). Inter-batch accuracy and precision were evaluated by testing a single sample at each concentration across five batches (n = 5 in total). The acceptance criteria for RE and RSD in the intra- and inter-batch reproducibility should be within ± 15% and 15%, respectively, except at the LLOQ that was within ± 20% and 20%, respectively, was allowed. Extraction recoveries of lenvatinib and the IS from plasma samples of the four species were evaluated. The recoveries of lenvatinib at the low, mid, and high QC levels (triplicates per concentration), and that of the IS (0.5 μg/mL) were determined. Peak heights of lenvatinib after extraction from plasma samples were compared to those of the neat solution with the same concentrations. Stability of lenvatinib in plasma and processed samples was assessed at the low and high QC levels. Lenvatinib concentrations in samples after storage were compared to the theoretical concentrations and RE values were calculated. The RE values should be within ± 15% when considered stable. Freeze–thaw stability in plasma was evaluated up to three freeze–thaw cycles and frozen stability in plasma was evaluated at − 15 °C or below for 4 weeks (mice, rats, and dogs) or 6 weeks (monkeys). Stability in processed samples was assessed at 4 °C for 7 days. Stability of lenvatinib in the standard solutions was evaluated for the stock (100 μg/mL) and the working solution (5 ng/mL). The stability of the IS solution (0.5 μg/mL) was also assessed. The standard solutions were stored at 5 °C for 4 weeks or 6 h at ambient temperature. The peak height of the stored solutions was compared to that of the freshly prepared solution. […]

[2] = Allometric PK scaling, prediction of CLint in humans; conditions: cross-species allometric scaling, BW 70 kg
Procedure: One of the typical approaches for predicting human PK from animal PK is empirical allometric scaling. As the CLtot of lenvatinib was relatively low and Vdss of lenvatinib was low to medium, thus it is theoretically preferable to correct by fp for both parameters. The CLtot divided by fp (CLtot/fp) or Vdss divided by fp (Vdss/fp) were plotted against body weight (BW) by log–log scale, and a linear regression was performed to estimate a slope and intercept for linear regression. The BW used in the calculation was 0.02, 0.2, 10, 5, and 70 kg for mice, rats, dogs, monkeys, and humans, respectively. CLtot and Vdss of lenvatinib in humans were predicted by using the regression line and the BW of humans. As no PK data of lenvatinib are available for CLtot and Vdss, which can be estimated only from intravenous administration PK study in humans, it is not possible to assess predictability of the allometric scaling for these two parameters of lenvatinib in humans. However, it is possible to predict exposure of lenvatinib after oral administration (AUCoral) in humans from the allometry scaling of hepatic intrinsic clearance (CLint). […]

Freeze/thaw stability, mean percentage bias from the theoretical values ([1]; HQC 80 μg/mL): 1.6%
Freeze/thaw stability, mean percentage bias from the theoretical values ([1]; MQC 1 μg/mL): 2.3%
Frozen stability, mean percentage bias from the theoretical values ([1]; HQC 80 μg/mL): 7.0%
Frozen stability, mean percentage bias from the theoretical values ([1]; LQC 0.01 μg/mL): 2.0%
Frozen stability, mean percentage bias from the theoretical values ([1]; MQC 1 μg/mL): 4.2%
CLint predicted in humans [2]: 78.4 mL/min/kg
Structure (SMILES): COc1cc2nccc(Oc3ccc(NC(=O)NC4CC4)c(Cl)c3)c2cc1C(N)=O [lenvatinib, Lenvatinib]
